According to patent US4377697A, “Imidazole hydrazone and hydrazine derivatives” (priority 1982, dated 1983):
≈ marks a conversion by molar mass, not a printed value. Where a name gives a salt, the structure may show the parent alone. Read-outs that look alike come from different tables or passages of the source.

What was measured:
[1] = tested on: Candida albicans; assay: in vitro anti-fungal assay, minimum inhibitory concentration; assay type: cell-based
Protocol: (§1) These tests were conducted by mixing a series of decreasing amounts of the compound under test with a liquid nutrient medium that had been inoculated with one of the test organisms. These preparations were incubated for 24 hours at 37° C. under anaerobic conditions and were then examined for the presence of growth as indicated by the turbidity in the liquid medium. Results were recorded as the lowest concentrations, in mg/l, of test compound that prevented growth of the test organisms (minimal inhibitory concentrations). Each test was run three times and the range of results are indicated.
(§2) The tests were conducted as described for the anaerobic bacteria with the exception that the organisms were incubated aerobically and kept at 30° C., apart from C.albicans which was kept at 37° C. Each test was run in duplicate.

[2] = tested on: Microsporum canis; assay: as above; assay type: cell-based; details: aerobic, 30° C., in duplicate, read-out: Minimum Inhibitory Concentrations, Microsporum canis
Protocol: as §1, §2

[3] = tested on: Trichophyton mentagrophytes; assay: as above; assay type: cell-based; details: aerobic, 30° C., in duplicate, read-out: Minimum Inhibitory Concentrations, Trichophyton mentagrophytes
Protocol: as §1, §2

[4] = tested on: Trichophyton rubrum; assay: as above; assay type: cell-based; details: aerobic, 30° C., in duplicate, read-out: Minimum Inhibitory Concentrations, Trichophyton rubrum
Protocol: as §1, §2

[5] = tested on: Epidermophyton floccosom; assay: as above; assay type: cell-based, Epidermophyton floccosum; details: aerobic, 30° C., in duplicate, read-out: Minimum Inhibitory Concentrations, Epidermophyton floccosom
Protocol: as §1, §2

[6] = tested on: Clostridium sporogenes; assay: in vitro anti-anaerobic assay, minimum inhibitory concentration; assay type: cell-based, Clostridium sporogenes (ATCC 19404); details: ATCC 19404, 24 hours at 37° C., range of three runs; for MIC: Clostridium sporogenes, ATCC19404, 24 h, read-out: Minimum Inhibitory Concentrations, Clostridium sporogenes
Protocol: (§3) The results of in vitro assays for a number of compounds according to the invention are given in Table 1, which follows the Examples.
as §1

[7] = tested on: Bacterioides fragilis; assay: as above; assay type: cell-based, Bacterioides fragilis (ATCC 23745); details: ATCC 23745, 24 hours at 37° C., range of three runs; for MIC: 24 h, read-out: Minimum Inhibitory Concentrations, Bacterioides fragilis
Protocol: as §3, §1

[8] = tested on: Propionibacterium acnes; assay: as above; assay type: cell-based, Propionibacterium acnes (ATCC 6919); details: Cutibacterium acnes, ATCC6919, ATCC 6919, 24 hours at 37° C., range of three runs, read-out: Minimum Inhibitory Concentrations, Propionibacterium acnes
Protocol: as §3, §1

[9] = tested on: Desulfovibrio desulfuricans; assay: in vitro assay against non-pathogenic anaerobe, minimum inhibitory concentration; assay type: cell-based; details: 24 hours at 37° C., anaerobic, range of three runs; for MIC: Desulfovibrio desulfuricans, 24 h
Protocol: These preparations were incubated for 24 hours at 37° C. under anaerobic conditions and were then examined for the presence of growth as indicated by the turbidity in the liquid medium. […] The tests were conducted as described for the pathogenic organisms discussed above.

[10] = tested on: anaerobic bacteria; details: known from the literature; cited from earlier work
[11] = reported in the literature; cited from earlier work
[12] = strain 3153, aerobic, 37° C., in duplicate, read-out: Minimum Inhibitory Concentrations, C.albicans 3153
[13] = strain A, aerobic, 37° C., in duplicate, read-out: Minimum Inhibitory Concentrations, Candida albicans A
[14] = strain B, aerobic, 37° C., in duplicate, read-out: Minimum Inhibitory Concentrations, C.albicans B
[15] = strain GB, aerobic, 37° C., in duplicate, read-out: Minimum Inhibitory Concentrations, C.albicans GB
[16] = AIP-BREWER, read-out: Minimum Inhibitory Concentrations, D.desulfuricans AIP-BREWER
[17] = API SW2, read-out: Minimum Inhibitory Concentrations, D.desulfuricans API SW2
[18] = API-CORE, read-out: Minimum Inhibitory Concentrations, Desulfovibrio desulfuricans API-CORE

MIC [1, 12] [µg/mL]	MIC [1, 13] [µg/mL]	MIC [1, 14] [µg/mL]	MIC [2] [µg/mL]	MIC [3] [µg/mL]	MIC [4] [µg/mL]	SMILES	MIC [6] [µg/mL]	MIC [7] [µg/mL]	MIC [8] [µg/mL]	MIC [9, 16] [µg/mL]	MIC [9, 17] [µg/mL]	MIC [9, 18] [µg/mL]	also measured
12.5	6.2	6.2	12.5	25	12.5	Clc1cc(Cl)c(NN=C2c3ccsc3CCCC2n2ccnc2)c(Cl)c1 (centres unmarked) [3 (l), 5-(1H-Imidazol-1-yl)-5,6,7,8-tetrahydro-4H-cyclohepta[b]thiophen-4-one,2,4,6-trichlorophenylhydrazone hydrogen oxalate]							MIC [5]: 6.2 µg/mL
12.5	6.2	6.2	6.2	> 100	1.5	Clc1cc(Cl)c(NN=C2c3ccccc3CCCC2n2ccnc2)c(Cl)c1 (centres unmarked) [3 (d), 6-(1H-Imidazol-1-yl)-6,7,8,9-tetrahydro-5-benzocycloheptanone, 2,4,6-trichlorophenylhydrazone hydrogen oxalate]							MIC [1, 15]: 12.5 µg/mL
						Clc1ccc(NN=C2c3ccccc3CCCCC2n2ccnc2)c(Cl)c1 (centres unmarked) [1 (d), 6-(1H-Imidazol-1-yl)-7,8,9,10-tetrahydro-5(6H)-benzocyclooctanone, 2,4-dichlorophenylhydrazone hydrochloride]	0.5 to 0.75	1 to 2.5	0.5 to 2.5	0.5 to 1	0.5 to 0.75	0.5 to 2.5	
						Clc1ccc(NN=C2c3sccc3CCCC2n2ccnc2)c(Cl)c1 (centres unmarked) [1 (j), 7-(1H-Imidazol-1-yl)-4,5,6,7-tetrahydro-8H-cyclohepta[b]-thiophen-8-one, 2 ,4-dichlorophenylhydrazone hydrogen oxalate]	1 to 2.5	0.75 to 1	5	0.5 to 0.75	0.75 to 1	0.75 to 1	
						Clc1ccc(NN=C2c3ccccc3CCCC2n2ccnc2)c(Cl)c1 (centres unmarked) [1 (a), 6-(1H-imidazol-1-yl)6,7,8,9-tetrahydro-5-benzocycloheptanone, 2,4-dichlorophenylhydrazone, hydrogen oxalate]	0.5 to 2.5	1 to 2.5	2.5				Minimum Inhibitory Concentrations, D.desulfuricans AIP-BREWER ([9]; AIP-BREWER): 0.5 mg/L; Minimum Inhibitory Concentrations, D.desulfuricans API SW2 ([9]; API SW2): 0.5 mg/L
						Clc1ccc(NN=C2c3ccccc3CCCC2n2ccnc2)c(Cl)c1 (centres unmarked) [1 (b), 6-(1H-imidazol-1-yl)-6,7,8,9-tetrahydro-5-benzocycloheptanone, 2,4-dichlorophenylhydrazone, hydrochloride]				0.5 to 0.75	0.5 to 1	0.5	Minimum Inhibitory Concentrations, Clostridium sporogenes ([6]; hydrochloride): 0.5 to 1.0 mg/L; Minimum Inhibitory Concentrations, Bacterioides fragilis ([7]; hydrochloride): 0.5 to 1.0 mg/L
						Clc1cc(Cl)c(NN=C2c3ccccc3CCCCC2n2ccnc2)c(Cl)c1 (centres unmarked) [3 (c), 6-(1H-Imidazol-1-yl)-7,8,9,10-tetrahydro-5(6H)-benzocyclooctanone, 2,4,6-trichlorophenylhydrazone hydrochloride]	0.5 to 1	2.5	2.5	0.5 to 0.75	0.5 to 0.75	0.75 to 1	
12.5	12.5	12.5	3.1	3.1	6.2	Cl.Clc1cc(Cl)c(NN=C2c3ccccc3OCCC2n2ccnc2)c(Cl)c1 (centres unmarked) [3 (i), 3,4-Dihydro-4-(1H-imidazol-1-yl)-1-benzoxepin-5(2H)-one, 2,4,6-trichlorophenylhydrazone hydrochloride]							MIC [5]: 3.1 µg/mL
						Cc1ncc([N+](=O)[O-])n1CCO [Metronidazole, metronidazole, reference compound]	0.5 (≈ 2.92 µM)	0.5 (≈ 2.92 µM)	> 100	0.5 (≈ 2.92 µM)	0.5 (≈ 2.92 µM)	0.5 (≈ 2.92 µM)	activity against anaerobic bacteria [10]: active against anaerobic bacteria; teratogenicity [11]: teratogenic

SMILES	MIC [1, 12] [µg/mL]	MIC [1, 13] [µg/mL]	MIC [1, 14] [µg/mL]	MIC [2] [µg/mL]	MIC [3] [µg/mL]	MIC [4] [µg/mL]	MIC [6] [µg/mL]	MIC [7] [µg/mL]	MIC [8] [µg/mL]	MIC [9, 16] [µg/mL]	MIC [9, 17] [µg/mL]	MIC [9, 18] [µg/mL]	also measured
Clc1ccc(COC(Cn2ccnc2)c2ccc(Cl)cc2Cl)c(Cl)c1 (centres unmarked) [Miconazole, reference compound]				6.2 (≈ 14.9 µM)	1.5 (≈ 3.6 µM)	3.1 (≈ 7.45 µM)							MIC ([1]; read-out: Minimum Inhibitory Concentrations, C.albicans 3153): 12.5 µg/mL (≈ 30 µM); MIC ([1]; read-out: Minimum Inhibitory Concentrations, C.albicans B): 6.2 µg/mL (≈ 14.9 µM); MIC ([1]; read-out: Minimum Inhibitory Concentrations, C.albicans GB): 12.5 µg/mL (≈ 30 µM); MIC ([1]; read-out: Minimum Inhibitory Concentrations, Candida albicans A): 6.2 µg/mL (≈ 14.9 µM); MIC [5]: 6.2 µg/mL (≈ 14.9 µM)
Clc1cc(Cl)c(NN=C2c3ccc(Cl)cc3CCCC2n2ccnc2)c(Cl)c1 (centres unmarked) [3 (b), 2-Chloro-6-(1H-imidazol-1-yl)-6,7,8,9-tetrahydro-5-benzocycloheptanone,2,4,6-trichlorophenylhydrazone hydrochloride]	6.2	6.2	6.2	25	25		0.75 to 1	0.75 to 1	5	0.75	0.75 to 2.5	0.75 to 1	MIC [1, 15]: 6.2 µg/mL
